# Source: ChEMBL document CHEMBL1125759, “A new ionizable chromophore of 1,4-bis(alkylamino)benzo[g]phthalazine which interacts with DNA by intercalation” (J Med Chem, 1991)
# Assays:
# [1] = Compound was evaluated for the protonation constant by binding to DNA by intercalation in calf thymus.; assay type: ADME, Bos taurus; settings: cattle
# HeLa = assay: In vitro effective dose for its cytostatic activity against HeLa cells.; assay type: functional; settings: Homo sapiens, read-out: ED50 (the source's name)
pKa [1],EC50 (HeLa),Compound
8.3,25 µg/mL,OCCCNc1nnc(NCCCO)c2cc3ccccc3cc12
7.4,,COc1cc(NS(C)(=O)=O)ccc1Nc1c2ccccc2nc2ccccc12 [AMSACRINE]
8.3,10 µg/mL,COCCCNc1nnc(NCCCOC)c2cc3ccccc3cc12
6.2,1.25 µg/mL,CN(C)CCCNc1nnc(NCCCN(C)C)c2cc3ccccc3cc12
